These results are taken from the supplement of paper PMC12463676, “Small-molecule dissolution of stress granules by redox modulation benefits ALS models” (Nature Chemical Biology, 2025).

Compound in assay [1]: NC(=O)CCCCC1CCSS1 [lipoamide]
Briefly: thermal stability z-score vs DMSO; higher = more thermally stabilized by treatment. The following applies: HeLa, lipoamide concentration 100 µM. The protocol:
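Cellular thermal proteome profiling in HeLa cells. Cells were treated with 100 µM lipoamide for 1 h, with or without 1 mM arsenate for a further 1 h, then heated to ten temperatures (37-66.3 °C), and soluble protein was quantified by TMT mass spectrometry relative to 0.1% DMSO controls. The thermal stability score (sum of log2 fold changes minus the abundance score) was transformed to a z-score; mean of n = 3 experiments.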

Compound in assay [2]: O=[As]([O-])(O)O.[K+] [potassium arsenate]
The assay is described as above. As to conditions: HeLa; arsenate concentration 1 mM. The protocol: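 Cellular thermal proteome profiling in HeLa cells treated with 1 mM arsenate for 1 h (DMSO pretreatment), heated to ten temperatures (37-66.3 °C). Soluble protein was quantified by TMT mass spectrometry relative to DMSO controls; the thermal stability score was transformed to a z-score; mean of n = 3 experiments.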

[3] abbreviates: arsenate co-treatment: 1 mM arsenate 1 h.
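Also: each temperature applied for 3 min, abundance score taken as mean log2 fold change at the two lowest temperatures, z-score obtained by mean subtraction and division by SD.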

Sequence of UniProt Q03111 (Q03111 whole entry): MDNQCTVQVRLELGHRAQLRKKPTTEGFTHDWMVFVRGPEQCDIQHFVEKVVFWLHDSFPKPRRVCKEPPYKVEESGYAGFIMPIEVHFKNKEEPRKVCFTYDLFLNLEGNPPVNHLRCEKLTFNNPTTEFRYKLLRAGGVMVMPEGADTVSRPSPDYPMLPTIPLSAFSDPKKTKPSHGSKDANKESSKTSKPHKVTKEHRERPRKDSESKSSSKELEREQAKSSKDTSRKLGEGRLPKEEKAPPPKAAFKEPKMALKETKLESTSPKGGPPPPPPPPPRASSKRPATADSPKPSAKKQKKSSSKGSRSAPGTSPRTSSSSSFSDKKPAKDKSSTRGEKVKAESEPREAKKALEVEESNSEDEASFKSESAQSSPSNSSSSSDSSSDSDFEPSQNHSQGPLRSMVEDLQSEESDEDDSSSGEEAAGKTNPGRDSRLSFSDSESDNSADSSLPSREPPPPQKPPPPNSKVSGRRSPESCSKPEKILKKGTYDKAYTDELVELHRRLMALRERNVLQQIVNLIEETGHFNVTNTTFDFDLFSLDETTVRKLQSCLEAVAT
Sequence of UniProt Q8N4V1 (Q8N4V1 whole entry): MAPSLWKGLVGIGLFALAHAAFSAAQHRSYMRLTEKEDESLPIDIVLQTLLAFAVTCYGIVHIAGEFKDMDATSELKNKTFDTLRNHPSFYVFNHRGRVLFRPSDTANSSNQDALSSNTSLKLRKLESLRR
Sequence of UniProt Q9BU76 (Q9BU76 whole entry): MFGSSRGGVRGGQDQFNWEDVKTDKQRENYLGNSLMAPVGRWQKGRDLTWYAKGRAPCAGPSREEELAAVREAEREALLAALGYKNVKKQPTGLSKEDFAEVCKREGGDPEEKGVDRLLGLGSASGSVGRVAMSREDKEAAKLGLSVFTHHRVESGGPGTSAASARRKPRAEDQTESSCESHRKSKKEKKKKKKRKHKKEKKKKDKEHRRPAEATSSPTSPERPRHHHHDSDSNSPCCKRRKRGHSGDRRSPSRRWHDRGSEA
Sequence of UniProt Q9BVC4 (Q9BVC4 whole entry): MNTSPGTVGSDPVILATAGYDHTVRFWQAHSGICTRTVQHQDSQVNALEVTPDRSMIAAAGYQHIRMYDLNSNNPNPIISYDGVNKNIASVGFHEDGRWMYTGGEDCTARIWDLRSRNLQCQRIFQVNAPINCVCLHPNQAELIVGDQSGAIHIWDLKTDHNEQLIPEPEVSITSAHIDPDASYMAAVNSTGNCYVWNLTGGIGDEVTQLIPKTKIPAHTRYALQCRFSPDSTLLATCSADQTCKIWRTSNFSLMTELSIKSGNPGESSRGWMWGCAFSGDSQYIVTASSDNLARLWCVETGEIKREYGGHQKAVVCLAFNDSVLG
Sequence of UniProt Q8IVH4 (Q8IVH4 whole entry): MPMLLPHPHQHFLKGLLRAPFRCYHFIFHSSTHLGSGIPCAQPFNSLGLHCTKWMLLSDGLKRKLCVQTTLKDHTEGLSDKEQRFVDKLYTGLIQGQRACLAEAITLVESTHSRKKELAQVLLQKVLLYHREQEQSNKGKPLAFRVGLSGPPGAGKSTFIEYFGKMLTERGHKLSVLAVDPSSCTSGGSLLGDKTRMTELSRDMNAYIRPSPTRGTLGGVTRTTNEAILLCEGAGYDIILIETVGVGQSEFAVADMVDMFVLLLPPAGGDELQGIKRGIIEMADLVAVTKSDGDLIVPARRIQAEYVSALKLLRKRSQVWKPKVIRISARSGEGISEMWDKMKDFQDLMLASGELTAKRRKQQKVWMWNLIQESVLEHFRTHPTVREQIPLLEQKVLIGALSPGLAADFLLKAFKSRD
Sequence of UniProt Q96EY8 (Q96EY8 whole entry): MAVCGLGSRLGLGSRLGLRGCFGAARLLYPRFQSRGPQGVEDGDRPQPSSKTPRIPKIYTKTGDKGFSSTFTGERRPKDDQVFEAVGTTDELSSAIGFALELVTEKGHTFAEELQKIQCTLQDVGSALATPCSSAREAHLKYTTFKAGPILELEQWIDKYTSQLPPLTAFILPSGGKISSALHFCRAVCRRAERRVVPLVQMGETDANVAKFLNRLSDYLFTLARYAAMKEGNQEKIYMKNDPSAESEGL
Sequence of UniProt Q9UH92 (Q9UH92 whole entry): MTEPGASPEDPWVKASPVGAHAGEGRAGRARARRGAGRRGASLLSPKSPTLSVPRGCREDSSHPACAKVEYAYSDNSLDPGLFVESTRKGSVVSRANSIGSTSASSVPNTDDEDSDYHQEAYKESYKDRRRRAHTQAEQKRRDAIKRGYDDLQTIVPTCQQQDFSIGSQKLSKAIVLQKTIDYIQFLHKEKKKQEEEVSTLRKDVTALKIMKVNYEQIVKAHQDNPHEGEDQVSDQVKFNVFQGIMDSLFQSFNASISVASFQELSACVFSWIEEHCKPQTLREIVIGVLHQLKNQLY
Sequence of UniProt Q9Y4U1 (Q9Y4U1 whole entry): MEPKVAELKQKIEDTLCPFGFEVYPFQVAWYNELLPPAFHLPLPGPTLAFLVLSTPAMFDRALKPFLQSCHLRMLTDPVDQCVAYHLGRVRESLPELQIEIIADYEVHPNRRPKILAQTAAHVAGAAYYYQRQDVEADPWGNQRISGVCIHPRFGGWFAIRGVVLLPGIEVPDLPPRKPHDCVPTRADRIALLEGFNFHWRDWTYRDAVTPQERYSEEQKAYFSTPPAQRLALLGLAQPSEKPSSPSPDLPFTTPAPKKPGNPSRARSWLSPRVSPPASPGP
Sequence of UniProt Q13724 (Q13724 whole entry): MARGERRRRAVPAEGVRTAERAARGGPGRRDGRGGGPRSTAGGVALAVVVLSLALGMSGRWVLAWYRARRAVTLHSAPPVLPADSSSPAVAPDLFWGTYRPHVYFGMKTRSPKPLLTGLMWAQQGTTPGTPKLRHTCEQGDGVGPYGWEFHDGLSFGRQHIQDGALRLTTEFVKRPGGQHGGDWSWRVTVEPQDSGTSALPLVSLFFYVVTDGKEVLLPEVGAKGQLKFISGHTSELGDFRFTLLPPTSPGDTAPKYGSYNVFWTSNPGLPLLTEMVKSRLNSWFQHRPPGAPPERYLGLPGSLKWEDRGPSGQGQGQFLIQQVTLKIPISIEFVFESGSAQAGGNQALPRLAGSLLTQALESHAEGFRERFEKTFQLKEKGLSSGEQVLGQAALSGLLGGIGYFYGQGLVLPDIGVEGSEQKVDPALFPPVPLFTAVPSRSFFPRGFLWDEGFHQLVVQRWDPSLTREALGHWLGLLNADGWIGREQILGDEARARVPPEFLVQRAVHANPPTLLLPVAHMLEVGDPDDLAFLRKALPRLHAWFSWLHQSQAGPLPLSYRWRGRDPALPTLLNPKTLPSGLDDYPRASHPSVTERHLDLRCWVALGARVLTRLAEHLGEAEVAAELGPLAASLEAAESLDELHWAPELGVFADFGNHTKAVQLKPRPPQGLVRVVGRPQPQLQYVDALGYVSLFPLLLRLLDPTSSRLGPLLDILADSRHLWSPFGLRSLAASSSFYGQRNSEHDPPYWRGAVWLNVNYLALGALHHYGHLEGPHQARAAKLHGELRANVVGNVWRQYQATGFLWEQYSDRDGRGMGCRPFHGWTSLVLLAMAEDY
Sequence of UniProt P51511 (P51511 whole entry, looked up): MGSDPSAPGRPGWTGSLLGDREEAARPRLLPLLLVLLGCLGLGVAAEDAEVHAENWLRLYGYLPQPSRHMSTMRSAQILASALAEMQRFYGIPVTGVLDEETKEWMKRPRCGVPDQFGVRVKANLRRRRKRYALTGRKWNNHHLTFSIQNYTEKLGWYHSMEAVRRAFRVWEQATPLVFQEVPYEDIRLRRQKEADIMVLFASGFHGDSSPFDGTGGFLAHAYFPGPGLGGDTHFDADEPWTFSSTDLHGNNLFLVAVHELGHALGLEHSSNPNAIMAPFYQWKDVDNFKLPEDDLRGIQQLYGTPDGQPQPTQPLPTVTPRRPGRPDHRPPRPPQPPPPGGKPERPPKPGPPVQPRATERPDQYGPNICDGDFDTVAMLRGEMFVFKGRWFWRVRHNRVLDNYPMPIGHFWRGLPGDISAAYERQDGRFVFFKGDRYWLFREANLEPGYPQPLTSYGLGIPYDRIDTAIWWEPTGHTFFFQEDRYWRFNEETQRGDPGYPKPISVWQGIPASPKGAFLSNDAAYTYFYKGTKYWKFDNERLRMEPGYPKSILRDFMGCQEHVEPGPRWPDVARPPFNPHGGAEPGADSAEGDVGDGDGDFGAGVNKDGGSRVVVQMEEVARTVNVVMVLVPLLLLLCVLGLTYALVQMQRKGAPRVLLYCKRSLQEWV
Sequence of UniProt O95822 (O95822 whole entry): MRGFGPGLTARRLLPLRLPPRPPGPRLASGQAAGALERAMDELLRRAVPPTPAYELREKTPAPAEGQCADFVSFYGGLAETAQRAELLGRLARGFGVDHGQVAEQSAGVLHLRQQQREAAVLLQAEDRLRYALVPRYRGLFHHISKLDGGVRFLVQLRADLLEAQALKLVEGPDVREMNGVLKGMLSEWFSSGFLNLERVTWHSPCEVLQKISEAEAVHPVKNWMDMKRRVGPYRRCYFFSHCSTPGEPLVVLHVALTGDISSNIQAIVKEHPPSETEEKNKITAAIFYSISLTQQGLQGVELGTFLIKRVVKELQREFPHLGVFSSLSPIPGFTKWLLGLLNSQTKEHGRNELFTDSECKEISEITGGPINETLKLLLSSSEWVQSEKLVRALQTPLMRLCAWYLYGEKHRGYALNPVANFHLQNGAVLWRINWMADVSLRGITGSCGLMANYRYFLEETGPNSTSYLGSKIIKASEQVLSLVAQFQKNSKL
Sequence of UniProt P51948 (P51948 whole entry): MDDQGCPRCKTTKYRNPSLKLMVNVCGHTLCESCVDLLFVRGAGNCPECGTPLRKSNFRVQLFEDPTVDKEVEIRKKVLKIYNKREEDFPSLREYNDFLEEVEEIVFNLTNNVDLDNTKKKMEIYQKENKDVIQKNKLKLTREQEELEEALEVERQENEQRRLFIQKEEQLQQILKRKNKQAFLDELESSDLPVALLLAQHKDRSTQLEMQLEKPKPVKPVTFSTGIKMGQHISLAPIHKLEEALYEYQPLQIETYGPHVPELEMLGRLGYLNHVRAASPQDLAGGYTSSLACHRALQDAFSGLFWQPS

With MLH1 (UniProt P40692), the thermal stability z-score in assay [1] (setting [3]) is -0.0694; in assay [1] (arsenate co-treatment: none) it was 0.372; in assay [2], 1.04.

Turning to MLKL (UniProt Q8NB16), the figures for the thermal stability z-score in assay [1] (setting [3]), in assay [1] (arsenate co-treatment: none) and in assay [2] were 0.561, 0.379 and -1.45, respectively.

For the target MLLT1 (UniProt Q03111), the thermal stability z-score in assay [1] (setting [3]) was -0.182; in assay [1] (arsenate co-treatment: none), -0.111; in assay [2] it was -0.0158.

MLLT4 (UniProt P55196): the thermal stability z-score was -0.572 in assay [1] (setting [3]), -0.126 in assay [1] (arsenate co-treatment: none) and -0.113 in assay [2].

As to MLST8 (UniProt Q9BVC4), the values for the thermal stability z-score in assay [1] (setting [3]), in assay [1] (arsenate co-treatment: none) and in assay [2] were -0.537, 0.0244 and 0.14, respectively.

For the target MLX (UniProt Q9UH92), the figures for the thermal stability z-score in assay [1] (setting [3]), in assay [1] (arsenate co-treatment: none) and in assay [2] were -0.0303, -0.272 and 0.0805, respectively.

As to MLYCD (UniProt O95822), the thermal stability z-score is 0.771 in assay [1] (setting [3]), 0.713 in assay [1] (arsenate co-treatment: none) and 0.837 in assay [2].

Take MMAA (UniProt Q8IVH4): the thermal stability z-score in assay [1] (setting [3]) was 0.33; in assay [1] (arsenate co-treatment: none), -0.0208; in assay [2], -1.04.

As for MMAB (UniProt Q96EY8), the thermal stability z-score in assay [1] (setting [3]) was -1.28; in assay [1] (arsenate co-treatment: none), -1.35; in assay [2], -0.58.

Turning to MMACHC (UniProt Q9Y4U1), the thermal stability z-score in assay [1] (setting [3]) is -0.0163; in assay [1] (arsenate co-treatment: none) it was -0.159; in assay [2], -0.12.

In the case of MME (UniProt P08473), the thermal stability z-score is -0.46 in assay [1] (setting [3]), -1.37 in assay [1] (arsenate co-treatment: none) and 0.585 in assay [2].

With MMGT1 (UniProt Q8N4V1), the thermal stability z-score came out at 0.584 in assay [1] (setting [3]), 0.397 in assay [1] (arsenate co-treatment: none) and 0.966 in assay [2].

MMP15 (UniProt P51511): the thermal stability z-score in assay [1] (setting [3]) is -0.901; in assay [1] (arsenate co-treatment: none), -0.632; in assay [2], -0.00399.

As to MMS19 (UniProt Q96T76), the thermal stability z-score was -0.784 in assay [1] (setting [3]), -1.16 in assay [1] (arsenate co-treatment: none) and -0.949 in assay [2].

Take MMTAG2 (UniProt Q9BU76): the thermal stability z-score in assay [1] (setting [3]) worked out at 2.29; in assay [1] (arsenate co-treatment: none), 0.684; in assay [2], 0.188.

In the case of MNAT1 (UniProt P51948), the thermal stability z-score is -0.257 in assay [1] (setting [3]), -0.423 in assay [1] (arsenate co-treatment: none) and 0.102 in assay [2].

For the target MND1 (UniProt Q9BWT6), the thermal stability z-score in assay [1] (setting [3]) was -0.235; in assay [1] (arsenate co-treatment: none), -0.0119; in assay [2] it was 0.296.

As to MOB1B|MOB1A, the thermal stability z-score in assay [1] (setting [3]) worked out at 1.02; in assay [1] (arsenate co-treatment: none) it was 0.33; in assay [2], 0.896.

With MOB2 (UniProt Q70IA6), the thermal stability z-score is -0.235 in assay [1] (setting [3]), -0.176 in assay [1] (arsenate co-treatment: none) and 0.0529 in assay [2].

For the target MOCOS (UniProt Q96EN8), the thermal stability z-score was 0.344 in assay [1] (setting [3]), 0.221 in assay [1] (arsenate co-treatment: none) and -0.535 in assay [2].

With MOCS2, the thermal stability z-score in assay [1] (setting [3]) was 0.00471; in assay [1] (arsenate co-treatment: none) it was 0.303; in assay [2], -0.289.

As for MOCS3 (UniProt O95396), the values for the thermal stability z-score in assay [1] (setting [3]), in assay [1] (arsenate co-treatment: none) and in assay [2] were 0.01, -0.0171 and -0.0988, respectively.

Regarding MOGS (UniProt Q13724), the thermal stability z-score in assay [1] (setting [3]) was -1.24; in assay [1] (arsenate co-treatment: none) it was -0.979; in assay [2], 0.158.

Consider MON1B (UniProt Q7L1V2), for which the results for the thermal stability z-score in assay [1] (setting [3]), in assay [1] (arsenate co-treatment: none) and in assay [2] were 0.955, 0.582 and 0.685, respectively.
